ChEMBL document CHEMBL1140851, “Synthesis of new amonafide analogues via coupling reaction and their cytotoxic evaluation and DNA-binding studies” (Bioorg Med Chem, 2009)
The source made the active and inactive calls. The calls are words filed in the database; no cut-off is given here.

Experiments:
[1] = Cytotoxicity against mouse P388D1 cells after 48 hrs by MTT assay; type: functional, cell-based; conditions: P388D1, 48 h
[2] = system: HeLa; assay: Cytotoxicity against human HeLa cells after 48 hrs by MTT assay; type: functional, cell-based
[3] = system: DNA; assay: Binding affinity to calf thymus DNA assessed as Scatchard binding constant by fluorescence quenching technique; type: nucleic-acid assay; conditions: Bos taurus
[4] = system: DNA; assay: Binding affinity to calf thymus DNA assessed as hypochromicity at 50 uM by UV-vis absorption spectra; type: nucleic-acid assay; conditions: Bos taurus
[5] = system: DNA; assay: Binding affinity to calf thymus DNA assessed as circular dichroism at 10 uM; type: nucleic-acid assay; conditions: Bos taurus
[6] = system: DNA; assay: Binding affinity to calf thymus DNA assessed as increase in viscosity of DNA by viscometric titration; type: nucleic-acid assay; conditions: Bos taurus

| SMILES | Kb [3] | Activity [4] | Activity [5] | Activity [6] | IC50 [1] | IC50 [2] |
| --- | --- | --- | --- | --- | --- | --- |
| CN(C)CCN1C(=O)c2cccc3cc(N4CCSCC4)cc(c23)C1=O | 0.79 ×10⁵ /M |  |  |  | 36300 nM | 2340 nM |
| CN(C)CCN1C(=O)c2cccc3cc(N4CCN(C)CC4)cc(c23)C1=O | 2.48 ×10⁵ /M | Active | Active | Active | 1930 nM | 430 nM |
| CN(C)CCN1C(=O)c2cccc3cc(N)cc(c23)C1=O [AMONAFIDE] | 1.05 ×10⁵ /M |  |  |  | 6020 nM | 680 nM |
| CN(C)CCN1C(=O)c2cccc3cc(NCc4cccs4)cc(c23)C1=O | 1.06 ×10⁵ /M |  |  |  | 9460 nM | 3540 nM |
| CN(C)CCN1C(=O)c2cccc3cc(N4CCOCC4)cc(c23)C1=O | 0.97 ×10⁵ /M |  |  |  | 9440 nM | 530 nM |
| CN(C)CCN1C(=O)c2cccc3cc(N4CCCCC4)cc(c23)C1=O | 0.85 ×10⁵ /M |  |  |  | 21600 nM | 2640 nM |

Continued, in another order:

| Kb [3] | Activity [4] | Activity [5] | Activity [6] | SMILES | IC50 [1] | IC50 [2] |
| --- | --- | --- | --- | --- | --- | --- |
| 1.23 ×10⁵ /M |  |  |  | CCCCNc1cc2c3c(cccc3c1)C(=O)N(CCN(C)C)C2=O | 9420 nM | 3240 nM |
| 1.85 ×10⁵ /M | Active | Active | Active | CN(C)CCNc1cc2c3c(cccc3c1)C(=O)N(CCN(C)C)C2=O | 620 nM | 830 nM |
| 1.75 ×10⁵ /M |  |  |  | CN(C)CCCNc1cc2c3c(cccc3c1)C(=O)N(CCN(C)C)C2=O | 710 nM | 230 nM |
